Laboratory results published in US20260373226A1, “METHODS AND COMPOSITIONS FOR THE TREATMENT OF NEURODEGENERATIVE DISEASE” (Stealth BioTherapeutics Inc., priority 2022, published 2026).

Legend:
[1] = Brain exposure PK in rats after single SC dose; format: in vivo; details: rat; single 5 mg/kg SC
Experimental: FIG. 2A is a chart showing the in vivo pharmacokinetic (PK) and pharmacodynamic (PD) response to SBT-272 brain exposure in rats. Rat brain SBT-272 concentrations up to 36 hours after a single dose of SBT-272 (5 mg/kg; subcutaneous (SC); n=8 rats per time-point).
Evaluation of SBT-272 exposure in brain tissues after subcutaneous dosing. Brain tissues were collected, at various time points (see FIG. 2A) following a single 5 mg/kg subcutaneous (SC) administration of SBT-272 (n=8 rats per time point).
Briefly, issues samples were weighed in 2 mL microcentrifuge tubes (micro tube 2 mL, low protein binding, with screw cap, REF 72.694.600 (Sarstedt, Germany), weight of tissues was recorded in the study file. The centrifuge tubes were kept on ice throughout the procedure. Four times tissue weight purified deionized water with 0.1% formic acid (v/w) was added. Two metal beads were placed in each microcentrifuge tube (Metal Bead Lysing Matrix Bulk, MP, USA). Brain tissues were homogenized using Bead Ruptor (Omni International, USA) for 60 seconds using a speed of […] per cycle. Homogenates (96 μL) were transferred to […] microcentrifuge tubes with surface that minimized binding (REF 04-212-3500, Nerbe Plus, Germany). Homogenates were frozen and kept at −80 °C until sample extraction for LC/MS/MS analysis. Two samples (twice 96 μL) collected, one kept if repeat required. […]

[2] = test system: models of neurodegeneration; assay: In vivo effect brain concentration (in vitro-in vivo correlation)
Text: See Guatam M., Platform presentation. NEALS, 2022. […] See Keefe, et al. (2019); Gautam, et al. (2022); Guatam, et al. (2021). Gautam, et al., SBT-272 improved mitochondria structure and function and preserved upper motor neurons with TDP-43 pathology, Platform poster presentation, presented at NEALS poster session (2022); Bido, et al. (2021); Silva, et al. (2022); and Zariwala, et al., Effects of the mitochondria-targeting small molecule SBT-272 in the R6/2 transgenic mice of Huntington's Disease, Poster presented at Keystone Symposia poster Session, 2022.

[3] = Phase 1 clinical plasma PK in healthy volunteers; format: in vivo, human
Text: The primary objective of this study is to evaluate the safety and tolerability of single and multiple ascending doses of SBT-272 administered via subcutaneous injection in healthy volunteers. The secondary objects of this study are to: (a) evaluate the plasma PK of SBT-272 in healthy volunteers following subcutaneous administration of single and multiple ascending doses; and (b) to determine an appropriate dose range for subsequence clinical evaluation.

[4] = Time-concentration profile in plasma, CSF and brain, rat versus nonhuman primate; format: in vivo; details: FIGS. 4A and 4C; equivalent dose levels, single or repeated SC dosing
Experimental: Pharmacokinetic profile of SBT-272 in rat plasma, CSF, and brain (for FIG. 4A). Briefly, as described elsewhere herein, male Sprague-Dawley (SD) rats were subcutaneously administered a single, 10 mg/kg dose of SBT-272. Plasma, CSF, and brain (microdialysis) samples were obtained at the time points indicated on FIG. 4A and analyzed for SBT-272 concentration by HPLC with tandem mass spectrometry (HPLC-MS/MS).
Pharmacokinetic profile of SBT-272 in nonhuman primate plasma, CSF, and brain. The objective of this study was to determine the pharmacokinetic profile of SBT-272 in CSF and plasma when delivered by subcutaneous (SC) injection for 10 days to cynomolgus monkeys. SBT-272 solution was administered daily by SC injection for 10 days. The following parameters and endpoints were evaluated in this study: mortality, clinical observations, body weights, pharmacokinetic samples (CSF and plasma), and selected tissue collection. There was no mortality during the study. […] Additional details regarding the experimental protocol are provided below.

Structure (SMILES): Cc1cc(O)cc(C)c1C[C@H](NC(=O)[C@H](N)CCCNC(=N)N)C(=O)N[C@@H](CCCCN)c1nc(Cc2ccccc2)no1 [SBT-272, (R)-2-amino-N—((S)-1-(((S)-5-amino-1-(3-benzyl-1,2,4-oxadiazol-5-yl)pentyl)amino)-3-(4-hydroxy-2,6-dimethylphenyl)-1-oxopropan-2-yl)-5-guanidinopentanamide]
- brain penetration / biodistribution across the blood-brain-barrier [1]: brain penetrant and exhibited optimized biodistribution across the blood-brain-barrier
- optimal in vivo effects, concentration ([2]; FIG. 3B): 10 to 100 nM
- brain concentration as a potential target for pharmacodynamic effect ([2]; from in vitro and in vivo correlations): 10 to 100 nM
- clinical PK versus expectations based on rat and nonhuman primate profiles ([3]; Phase 1, healthy volunteers, SC): consistent with expectations based on rat and nonhuman primate profiles
- clinical PK profile versus non-clinical allometric scaling predictions ([3]; healthy subjects, FIG. 7, 40 mg once daily, interim): consistent with non-clinical allometric scaling predictions
- time-concentration profile in plasma, CSF, and brain, rat versus nonhuman primate [4]: very similar in rat and nonhuman primate
